Laboratory results: patent US20170035793A1, “Use of P2X Purinergic Receptor Agonists to Enhance Insulin Secretion In Pancreatic Beta Cells” (priority 2010, published 2017)
pEC50: −log10 of the molar value. Entries after “also recorded” stand apart in the source; their conditions may differ.

Legend:
human islets = test: ATP-induced (or α,β meATP-induced) insulin secretion in human islets with antagonists or blockers; assay type: cell-based; conditions: nominal 0 Ca2+ (+1 mM EGTA), ATP 10 μM, α,β meATP 100 μM
Text: (§1) Islet Isolation. Islets were isolated as previously described (57). Monkey islets were isolated from cynomolgus monkeys (Macacca fascicularis) >4 years of age at the time of pancreas procurement, as previously described (58). Pig pancreata were procured from the local slaughterhouse. Mice (C57BL/6) and rat (Lewis rat; Harlan) islets were isolated using a rodent-islet isolation technique (59). All animal protocols were approved by the University of Miami Care and Use Committee. Human pancreatic islets were obtained from the Human Islet Cell Processing Facility at the Diabetes Research Institute, University of Miami Miller School of Medicine or from the Islet Cell Resource basic science islet distribution program, Islet Cell Resource Centers (ICRs) Consortium, Division of Clinical Research, National Center for Research Resources, National Institutes of Health. Human islets were dissociated into single cells using enzyme-free cell dissociation buffer (Invitrogen). Islets and islets cells from Q:1 all species were cultured identically (37° C. and 5% CO2) inCMRL Q:2 medium-1066 (Invitrogen), niacinamide (10 mM; Sigma), ITS (BD Biosciences), Zn2SO4 (15 μM, Sigma), GlutaMAX (2 mM; Invitrogen), Hepes (25 mM; Sigma), FBS (10%; Invitrogen), and penicillinstreptomycin (100 IU/mL-100 μg/mL; Invitrogen).
Insulin and Glucagon Secretion. Insulin and glucagon secretion were measured as previously described (8, 36). A high-capacity automated perifusion system was developed to dynamically measure hormone secretion from pancreatic islets. A low pulsatility peristaltic pump pushed Hepes-buffered solution (125 mM NaCl, 5.9 mM KCl, 2.56 mM CaCl2, 1 mM MgCl2, 25 mM Hepes, and 0.1% BSA, pH 7.4 at a perifusion rate of 100 μL/min) through a column containing 100 pancreatic islets immobilized in Bio-Gel P-4 Gel (BioRad). Except when otherwise stated, glucose concentration was adjusted to 3 mM for all experiments. Stimuli were applied with the perifusion buffer. The perifusate was collected in an automatic fraction collector designed for a 96-well plate format. The columns containing the islets and the perifusion solutions were kept at 37° C., and the perifusate in the collecting plate was kept at <4° C. Perifusates were collected every 1 min. Hormone release in the perifusate was determined with the human or mouse Endocrine LINCOplex Kit following manufacturer's instructions (Lincoresearch). Human islet preparations varied considerably in their quality. Thus, the magnitudes of the responses to different stimuli were compared with the same recording or using recordings from the same preparation.

human β cells = test: [Ca2+]i imaging (Fura-2) of glucose-responsive human islet cells; assay type: cell-based; conditions: ATPγS 50 μM
Text: as §1
[Ca^2+]i; Imaging. [Ca^2+]i imaging was performed as previously described (8, 36). Dispersed islet cells were immersed in Hepes-buffered solution (125 mMNaCl, 5.9 mMKCl, 2.56 mMCaCl2, 1 mMMgCl2, 25 mMHepes, and 0.1% BSA, pH7.4). Glucose was added to give a final concentration of 3 mM. Islets or dispersed islet cells were incubated in Fura-2 AM (2 μM; 1 h) and placed in a closed small volume imaging chamber (Warner Instruments). Stimuli were applied with the bathing solution. Islets loaded with Fura-2 were excited alternatively at 340 and 380 nm with a monochromator light source (Cairn Research Optoscan Monochromator; Cairn Research Ltd). Images were acquired with a Hamamatsu camera (Hamamatsu) attached to a Zeiss Axiovert 200 microscope (Carl Zeiss). Changes in the 340/380 fluorescence emission ratio over time were analyzed in individual islets and dispersed cells using Kinetic Imaging AQM Advance software (Kinetic Imaging). Peak changes in the fluorescence ratio constituted the response amplitude. Beta cells were distinguished from other endocrine cells by their [Ca^2+]i, responses to high glucose concentrations, and alpha cells were identified by their [Ca^2+]i responses to kainate (glutamate receptor agonist) (8, 36).

rat islets = test: Insulin secretion from perifused rat islets; assay type: cell-based, rat (Lewis rat); conditions: 1-1,000 μM
Text: as §1, with “Islets and islets cells from Q:1 all species were cultured identically (37° C. and 5% CO2) inCMRL Q:2 medium-1066 (Invitrogen), niacinamide (10 mM; Sigma), ITS (BD Biosciences), Zn2SO4 (15 μM, Sigma), GlutaMAX (2 mM; Invitrogen), Hepes (25 mM; Sigma), FBS (10%; Invitrogen), and penicillinstreptomycin (100 IU/mL-100 μg/mL; Invitrogen).” left out
(§2) Insulin and Glucagon Secretion. Insulin and glucagon secretion were measured as previously described (8, 36). […] Hormone release in the perifusate was determined with the human or mouse Endocrine LINCOplex Kit following manufacturer's instructions (Lincoresearch). […]

mouse islets = test: Insulin secretion from perifused mouse islets; assay type: cell-based, Mice (C57BL/6); conditions: 1-1,000 μM
Text: as §1, with “Islets and islets cells from Q:1 all species were cultured identically (37° C. and 5% CO2) inCMRL Q:2 medium-1066 (Invitrogen), niacinamide (10 mM; Sigma), ITS (BD Biosciences), Zn2SO4 (15 μM, Sigma), GlutaMAX (2 mM; Invitrogen), Hepes (25 mM; Sigma), FBS (10%; Invitrogen), and penicillinstreptomycin (100 IU/mL-100 μg/mL; Invitrogen).” left out
as §2

monkey islets = test: Glucagon secretion from perifused monkey islets; assay type: cell-based, cynomolgus monkeys (Macacca fascicularis)
Text: as §1, with “Islets and islets cells from Q:1 all species were cultured identically (37° C. and 5% CO2) inCMRL Q:2 medium-1066 (Invitrogen), niacinamide (10 mM; Sigma), ITS (BD Biosciences), Zn2SO4 (15 μM, Sigma), GlutaMAX (2 mM; Invitrogen), Hepes (25 mM; Sigma), FBS (10%; Invitrogen), and penicillinstreptomycin (100 IU/mL-100 μg/mL; Invitrogen).” left out
as §2

pig islets = test: Glucagon secretion from perifused pig islets; assay type: cell-based
Text: as §1, with “Islets and islets cells from Q:1 all species were cultured identically (37° C. and 5% CO2) inCMRL Q:2 medium-1066 (Invitrogen), niacinamide (10 mM; Sigma), ITS (BD Biosciences), Zn2SO4 (15 μM, Sigma), GlutaMAX (2 mM; Invitrogen), Hepes (25 mM; Sigma), FBS (10%; Invitrogen), and penicillinstreptomycin (100 IU/mL-100 μg/mL; Invitrogen).” left out
as §2

human P2X3 receptor = biological target: T1, human P2X3 receptor (Homo sapiens, UniProt P56373); conditions: read-out: reported EC50 for the human P2X3 receptor; cited from earlier work
T1 sequence (P56373 1-397): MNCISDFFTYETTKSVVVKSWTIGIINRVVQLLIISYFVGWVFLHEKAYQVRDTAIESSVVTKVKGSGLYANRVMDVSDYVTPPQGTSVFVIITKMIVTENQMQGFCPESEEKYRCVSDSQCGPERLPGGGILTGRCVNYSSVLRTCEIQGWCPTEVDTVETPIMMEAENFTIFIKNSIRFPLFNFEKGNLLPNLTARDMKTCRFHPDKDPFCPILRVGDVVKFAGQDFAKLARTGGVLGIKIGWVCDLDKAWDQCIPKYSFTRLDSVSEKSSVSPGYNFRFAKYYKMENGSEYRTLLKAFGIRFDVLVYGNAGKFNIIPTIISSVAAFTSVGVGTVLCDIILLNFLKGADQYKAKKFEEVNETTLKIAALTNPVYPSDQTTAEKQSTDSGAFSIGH

P2X7 receptors = biological target: T2, P2X7 receptors (Homo sapiens, UniProt Q99572); conditions: cited from earlier work
T2 sequence (Q99572 1-595): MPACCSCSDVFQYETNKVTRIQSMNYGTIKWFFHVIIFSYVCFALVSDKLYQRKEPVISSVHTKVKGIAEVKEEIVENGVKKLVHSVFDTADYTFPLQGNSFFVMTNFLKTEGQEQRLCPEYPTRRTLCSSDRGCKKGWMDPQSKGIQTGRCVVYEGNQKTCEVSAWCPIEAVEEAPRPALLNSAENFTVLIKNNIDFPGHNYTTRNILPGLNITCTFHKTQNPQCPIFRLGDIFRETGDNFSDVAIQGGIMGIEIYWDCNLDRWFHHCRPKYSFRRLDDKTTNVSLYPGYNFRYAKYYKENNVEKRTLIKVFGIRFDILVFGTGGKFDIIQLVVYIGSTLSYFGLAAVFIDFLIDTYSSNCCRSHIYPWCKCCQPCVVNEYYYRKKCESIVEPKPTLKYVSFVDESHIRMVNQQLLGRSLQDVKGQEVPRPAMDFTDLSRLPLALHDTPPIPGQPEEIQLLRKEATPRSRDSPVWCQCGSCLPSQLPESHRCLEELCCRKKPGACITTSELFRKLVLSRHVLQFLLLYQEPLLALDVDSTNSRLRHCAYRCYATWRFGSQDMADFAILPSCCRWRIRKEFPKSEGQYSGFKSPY

For `Nc1ncnc2c1ncn2[C@@H]1O[C@H](COP(=O)(O)OP(=O)(O)OP(=O)(O)O)[C@@H](O)[C@H]1O` [ATP], the “insulin responses to the agonist in the nominal absence of extracellular Ca2+” value (human islets) was “reduced; also recorded: strongly diminished”, the “[Ca2+]i response of β cells to the agonist” value (human β cells; human β cells identified by response to high glucose (11 or 16 mM), recorded at 3 mM glucose, BzATP 50 μM) was “elicited repeatable [Ca^2+]i responses; also recorded: elicited large insulin and [Ca^2+]i, responses” and the “[Ca2+]i responses to the agonist in the nominal absence of extracellular Ca2+” value (human β cells; human β cells, nominal 0 Ca2+ (+1 mM EGTA)) was “reduced [Ca^2+]i responses to ATP”. The “insulin response of rat islets” value (rat islets) was “No responses to ATP were observed; also recorded: neither ATP nor any of the other purinergic agonists tested stimulated insulin release; also recorded: only high concentrations of ATP (1 mM) induced small increases in insulin release”, the “insulin response of mouse islets” value (mouse islets) was “No responses to ATP were observed; also recorded: neither ATP nor any of the other purinergic agonists tested stimulated insulin release” and the “glucagon response of monkey islets” value (monkey islets) was “stimulated small increases in glucagon secretion”. For the same molecule, the “glucagon response of pig islets” value (pig islets) was “difficult to discern”, the pEC50 (human P2X3 receptor) was ~6.41 and the “ATP concentrations required for activation of homomeric P2X7 receptors” value (P2X7 receptors) was > 100. For the same molecule, the pEC50 (P2X7 receptors; read-out: EC50 for activation of P2X7 receptors) was 4.00.
